Measured values taken from ChEMBL document CHEMBL1201862, “PubChem BioAssay data set” (2004).
Blank lines part the entries; values can stand above or below the compound they belong to. The source made the active and inactive calls.

Experiments:
Vero = Vero cell cytotoxicity, cytotoxicity control for flavivirus capping enzyme inhibitors (AID 588742); type: functional; settings: Chlorocebus sabaeus
[1] = target: T1, Polyadenylate-binding protein 1 (Homo sapiens, UniProt P11940); test: PABP1 MLLE–PAM2 binding inhibitor potency, dose response, biochemical, fluorescence polarization, FITC-PAM2 peptide (AID 602259); type: functional; settings: read-out: IC50_Mean
[2] = target: T1, Polyadenylate-binding protein 1; test: PABP1 MLLE–PAM2 interaction inhibitors, dose response, miRNA deadenylation inhibitor project, biochemical, fluorescence polarization, Cy5-PAM2 peptide, secondary (AID 602260); type: functional; settings: read-out: IC50_Mean
Protein Wnt-3a = Protein Wnt-3a (Mus musculus, UniProt P27467); test: Wnt3a-driven reporter signaling inhibition, dose response, selectivity assay for Gli-SUFU antagonist project, Wnt-LIGHT cells, luminescence (AID 651570); type: functional; settings: read-out: IC50_Mean;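 also: Wnt-LIGHT reporter cells stimulated with conditioned medium from Wnt3a-producing cells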
[3] = NIH-3T3 fibroblast cytotoxicity, dose response, cytotoxicity control, cell-based, fluorescence, Alamar Blue, secondary assay (AID 2327); type: functional;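 also: NIH-3T3 mouse fibroblasts cultured with fluconazole at 8 µg/mL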
[4] = target: T2, Serine/threonine-protein phosphatase (Candida dubliniensis (strain CD36 / CBS 7987 / NCPF 3949 / NRRLY-17841) (Yeast), UniProt B9W6M3); test: calcineurin pathway inhibitors in yeast reporter, dose response, S. cerevisiae, CDRE-lacZ, luminescence, secondary (AID 2388); type: functional, cell-based;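 also: yeast reporter cells carrying a calcineurin-responsive lacZ construct stimulated with calcium chloride; luminescent beta-galactosidase reporter signal in whole cells rather than isolated phosphatase activity; potency for inhibition where a drop in reporter signal means calcineurin blockade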
T2 sequence (B9W6M3 whole entry): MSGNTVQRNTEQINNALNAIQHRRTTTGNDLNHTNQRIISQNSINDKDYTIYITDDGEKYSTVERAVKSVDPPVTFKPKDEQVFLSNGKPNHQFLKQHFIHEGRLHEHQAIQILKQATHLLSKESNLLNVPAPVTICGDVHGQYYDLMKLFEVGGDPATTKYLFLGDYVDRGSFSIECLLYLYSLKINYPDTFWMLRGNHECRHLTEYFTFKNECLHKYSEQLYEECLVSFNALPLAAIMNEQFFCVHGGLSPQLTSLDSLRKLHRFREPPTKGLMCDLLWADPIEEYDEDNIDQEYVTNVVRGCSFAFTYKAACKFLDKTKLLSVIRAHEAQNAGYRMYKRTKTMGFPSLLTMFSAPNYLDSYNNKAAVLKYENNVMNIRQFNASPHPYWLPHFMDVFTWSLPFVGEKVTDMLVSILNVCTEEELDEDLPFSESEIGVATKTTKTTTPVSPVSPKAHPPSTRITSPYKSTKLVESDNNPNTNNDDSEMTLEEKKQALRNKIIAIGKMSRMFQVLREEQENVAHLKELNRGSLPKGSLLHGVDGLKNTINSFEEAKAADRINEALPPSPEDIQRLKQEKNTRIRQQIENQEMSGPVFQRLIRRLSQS

[5] = target: ATP-dependent molecular chaperone HSP82 (Candida albicans (strain WO-1) (Yeast), UniProt C4YTQ8); test: loss of DOC-induced GRE-beta-galactosidase reporter signal, dose response, Hsp90 inhibitor project, S. cerevisiae, luminescence (AID 2400); type: functional, cell-based;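 also: beta-galactosidase luminescence from glucocorticoid response element reporter as proxy for Hsp90 function; inhibitor potency where signal loss means Hsp90 inhibition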
[6] = C. albicans growth with fluconazole, confirmation, fluorescence, retest (AID 2467); type: functional, cell-based
[7] = target: Dual specificity tyrosine-phosphorylation-regulated kinase 1A (Rattus norvegicus, UniProt Q63470); type: biochemical, Homo sapiens
[8] = target: T3, Rac GTPase-activating protein 1 (Homo sapiens, UniProt Q9H0H5); test: MgcRacGAP GTPase-activating activity inhibitors, confirmation, biochemical, ADP Hunter fluorescence, primary and confirmatory (AID 624330); type: functional
T3 sequence (Q9H0H5 whole entry): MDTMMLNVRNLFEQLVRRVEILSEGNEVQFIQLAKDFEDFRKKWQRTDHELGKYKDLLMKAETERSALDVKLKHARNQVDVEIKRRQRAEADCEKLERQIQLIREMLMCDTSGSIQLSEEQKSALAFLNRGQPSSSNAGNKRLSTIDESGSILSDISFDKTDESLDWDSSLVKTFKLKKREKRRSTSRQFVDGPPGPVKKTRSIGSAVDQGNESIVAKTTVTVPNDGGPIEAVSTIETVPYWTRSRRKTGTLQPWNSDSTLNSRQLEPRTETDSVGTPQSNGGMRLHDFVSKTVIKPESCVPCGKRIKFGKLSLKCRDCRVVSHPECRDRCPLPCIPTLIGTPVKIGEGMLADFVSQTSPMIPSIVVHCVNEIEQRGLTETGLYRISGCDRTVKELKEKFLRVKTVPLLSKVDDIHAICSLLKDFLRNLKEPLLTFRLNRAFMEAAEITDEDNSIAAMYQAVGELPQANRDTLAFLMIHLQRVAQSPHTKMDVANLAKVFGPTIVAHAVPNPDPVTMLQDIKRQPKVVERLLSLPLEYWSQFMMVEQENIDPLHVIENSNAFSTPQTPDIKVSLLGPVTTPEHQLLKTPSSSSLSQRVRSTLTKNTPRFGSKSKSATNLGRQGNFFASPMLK

[9] = HepG2 cell cytotoxicity, dose response, cytotoxicity control for Shn3 inhibitor project, CellTiter-Glo, cherry-picked (AID 624134); type: functional, cell-based
[10] = Luminescence Cell-Based Dose Retest to Confirm Inhibitors of Cancer Stem Cells. [Related pubchem assays (depositor defined):AID2717, AID2721]; type: functional; settings: Homo sapiens
[11] = control 3'UTR Renilla luciferase suppression, dose response, counter-screen for Shn3 inhibitor project, cell-based, Clone20-Shn3RL, cherry-picked (AID 624133); type: functional
INS1 = test: beta cell apoptosis inhibitors, cytokine rescue, dose response, luminescence, retest (AID 449756); type: functional, cell-based; settings: Rattus norvegicus;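 also: cell death triggered by IL-1 beta plus TNF-alpha plus IFN-gamma mixture; protective hits raise ATP signal compared with cytokine alone wells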
[12] = inhibitors of intracellular T. cruzi replication, confirmation, NIH3T3 host cells, beta-gal luminescence (AID 2044); type: functional, cell-based;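 also: intracellular parasites grown in NIH/3T3 mouse fibroblasts as host cells; luminescent beta-galactosidase reporter signal from transgenic T. cruzi replicating inside host cells; inhibitors lower the luminescence signal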
[13] = target: T4, Microphthalmia-associated transcription factor (Homo sapiens, UniProt O75030); test: TRPM1 promoter luciferase signal decrease, dose response, MITF inhibitor project, cell-based, SK-MEL-5, cherry-picked, set 3 (AID 493073); type: functional
T4 sequence (O75030 whole entry): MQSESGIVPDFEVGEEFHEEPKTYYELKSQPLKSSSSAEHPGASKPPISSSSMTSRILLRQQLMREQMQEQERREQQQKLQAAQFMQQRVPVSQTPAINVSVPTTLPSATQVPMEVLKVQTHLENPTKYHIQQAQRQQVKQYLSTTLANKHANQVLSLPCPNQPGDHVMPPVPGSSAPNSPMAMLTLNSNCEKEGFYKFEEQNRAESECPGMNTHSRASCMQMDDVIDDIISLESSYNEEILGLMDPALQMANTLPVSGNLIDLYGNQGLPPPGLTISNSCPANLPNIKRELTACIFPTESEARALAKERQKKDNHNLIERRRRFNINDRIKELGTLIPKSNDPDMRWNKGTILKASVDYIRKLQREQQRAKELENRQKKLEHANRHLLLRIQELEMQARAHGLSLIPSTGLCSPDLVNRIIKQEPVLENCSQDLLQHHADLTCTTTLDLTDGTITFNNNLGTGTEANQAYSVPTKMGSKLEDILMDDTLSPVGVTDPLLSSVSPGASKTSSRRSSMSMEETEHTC

[14] = cytotoxicity toward NIH3T3 fibroblasts, dose response, counter-screen, cell-based, ATP luminescence, mouse fibroblasts (AID 2010); type: functional;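 also: cells exposed to compound for about 90 hours before reading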
A-375 = test: MITF: Counter assay: A375 proliferation Measured in Cell-Based System Using Plate Reader - 2084-03_Inhibitor_Dose_DryPowder_Activity. [Related pubchem assays (depositor defined):AID488944]; type: functional; settings: Homo sapiens
[15] = Shn3 3'UTR reporter inhibitors, dose response, cell-based, Clone20 osteoblasts, firefly luciferase, cherry-picked (AID 624132); type: functional;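 also: firefly luciferase luminescence from reporter carrying the Shn3 3'UTR in osteoblasts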
Hexokinase HKDC1 = target: T5, Hexokinase HKDC1 (Homo sapiens, UniProt Q2TB90); test: SAR analysis of small molecule inhibitors of hexokinase domain containing I (HKDC1). [Related pubchem assays (depositor defined):AID493160, AID493190]; type: functional
T5 sequence (Q2TB90 whole entry): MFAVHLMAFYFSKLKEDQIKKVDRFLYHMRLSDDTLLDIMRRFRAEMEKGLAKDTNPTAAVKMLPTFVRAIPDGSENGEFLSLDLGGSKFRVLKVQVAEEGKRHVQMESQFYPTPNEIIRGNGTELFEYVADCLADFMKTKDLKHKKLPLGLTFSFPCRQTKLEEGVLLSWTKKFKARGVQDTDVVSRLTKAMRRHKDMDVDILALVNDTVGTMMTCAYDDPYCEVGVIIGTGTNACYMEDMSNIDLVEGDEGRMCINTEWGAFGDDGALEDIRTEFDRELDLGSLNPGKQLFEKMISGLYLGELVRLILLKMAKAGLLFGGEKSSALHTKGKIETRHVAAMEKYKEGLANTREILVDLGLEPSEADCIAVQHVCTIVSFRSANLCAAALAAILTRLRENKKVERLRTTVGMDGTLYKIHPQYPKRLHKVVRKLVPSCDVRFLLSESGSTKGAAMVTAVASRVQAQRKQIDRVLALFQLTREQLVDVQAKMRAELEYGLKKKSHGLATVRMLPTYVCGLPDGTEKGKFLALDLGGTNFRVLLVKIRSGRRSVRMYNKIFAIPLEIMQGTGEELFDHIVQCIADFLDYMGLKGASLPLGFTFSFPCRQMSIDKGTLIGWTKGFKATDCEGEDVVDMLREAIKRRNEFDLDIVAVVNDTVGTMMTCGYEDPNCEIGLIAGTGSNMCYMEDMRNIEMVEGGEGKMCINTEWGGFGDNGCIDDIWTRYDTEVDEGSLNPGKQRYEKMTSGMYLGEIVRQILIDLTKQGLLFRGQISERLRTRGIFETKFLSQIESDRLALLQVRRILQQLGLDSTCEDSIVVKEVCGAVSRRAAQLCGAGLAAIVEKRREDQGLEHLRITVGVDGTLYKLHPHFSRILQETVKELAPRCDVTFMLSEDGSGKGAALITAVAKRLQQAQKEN

Hexokinase-1 = target: T6, Hexokinase-1 (Homo sapiens, UniProt P19367); test: SAR analysis of small molecule inhibitors of hexokinase domain containing I (HKDC1) in the hexokinase 1 selectivity assay. [Related pubchem assays (depositor defined):AID493160, AID493190]; type: functional
T6 sequence (P19367 whole entry): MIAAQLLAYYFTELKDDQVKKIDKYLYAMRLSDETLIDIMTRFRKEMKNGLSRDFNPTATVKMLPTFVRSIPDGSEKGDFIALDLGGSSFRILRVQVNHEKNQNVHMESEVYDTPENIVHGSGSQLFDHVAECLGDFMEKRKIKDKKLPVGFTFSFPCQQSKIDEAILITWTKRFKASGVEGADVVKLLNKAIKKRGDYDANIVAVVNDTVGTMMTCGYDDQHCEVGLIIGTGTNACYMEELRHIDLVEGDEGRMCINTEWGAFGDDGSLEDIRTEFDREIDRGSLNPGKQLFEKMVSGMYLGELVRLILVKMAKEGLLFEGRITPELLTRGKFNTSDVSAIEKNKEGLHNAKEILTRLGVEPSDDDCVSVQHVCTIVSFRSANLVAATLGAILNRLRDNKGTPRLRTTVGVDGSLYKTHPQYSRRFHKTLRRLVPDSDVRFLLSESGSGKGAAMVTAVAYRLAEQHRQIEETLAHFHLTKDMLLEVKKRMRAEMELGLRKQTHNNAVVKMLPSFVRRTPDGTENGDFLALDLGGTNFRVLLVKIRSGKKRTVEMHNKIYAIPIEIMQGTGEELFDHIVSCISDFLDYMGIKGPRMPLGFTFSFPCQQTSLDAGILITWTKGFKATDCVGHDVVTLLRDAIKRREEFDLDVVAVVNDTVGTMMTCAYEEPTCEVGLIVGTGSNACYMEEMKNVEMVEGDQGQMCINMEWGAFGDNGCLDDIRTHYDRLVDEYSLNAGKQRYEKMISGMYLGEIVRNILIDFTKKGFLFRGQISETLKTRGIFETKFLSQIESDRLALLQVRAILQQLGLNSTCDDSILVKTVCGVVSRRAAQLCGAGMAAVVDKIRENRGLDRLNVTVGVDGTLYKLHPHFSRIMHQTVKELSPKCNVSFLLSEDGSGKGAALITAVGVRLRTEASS

Large T antigen = Large T antigen (Simian virus 40, UniProt P03070); type: functional, Betapolyomavirus macacae;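 also: Confirmatory-stage PubChem screen for compounds that inhibit SV40 T antigen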
Large T antigen, sequence (P03070 whole entry): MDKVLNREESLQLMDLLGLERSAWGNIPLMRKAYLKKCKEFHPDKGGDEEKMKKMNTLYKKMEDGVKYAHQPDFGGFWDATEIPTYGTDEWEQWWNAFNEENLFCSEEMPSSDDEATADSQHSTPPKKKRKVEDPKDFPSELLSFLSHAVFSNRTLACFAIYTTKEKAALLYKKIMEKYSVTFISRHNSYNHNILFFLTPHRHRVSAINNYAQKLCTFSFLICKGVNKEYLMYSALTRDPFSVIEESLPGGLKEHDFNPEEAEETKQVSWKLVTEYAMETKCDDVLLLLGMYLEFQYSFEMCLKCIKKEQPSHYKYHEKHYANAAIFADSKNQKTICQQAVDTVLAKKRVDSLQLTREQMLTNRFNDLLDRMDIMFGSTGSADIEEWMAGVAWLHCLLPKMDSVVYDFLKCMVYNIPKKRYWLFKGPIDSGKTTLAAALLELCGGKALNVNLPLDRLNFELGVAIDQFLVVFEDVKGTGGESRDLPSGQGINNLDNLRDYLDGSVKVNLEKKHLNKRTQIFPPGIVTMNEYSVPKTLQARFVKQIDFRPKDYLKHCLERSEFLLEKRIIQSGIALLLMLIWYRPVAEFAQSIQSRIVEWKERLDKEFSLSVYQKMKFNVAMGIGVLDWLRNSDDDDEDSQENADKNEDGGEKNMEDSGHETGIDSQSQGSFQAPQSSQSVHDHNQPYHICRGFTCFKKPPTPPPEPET

T1 sequence (P11940 whole entry): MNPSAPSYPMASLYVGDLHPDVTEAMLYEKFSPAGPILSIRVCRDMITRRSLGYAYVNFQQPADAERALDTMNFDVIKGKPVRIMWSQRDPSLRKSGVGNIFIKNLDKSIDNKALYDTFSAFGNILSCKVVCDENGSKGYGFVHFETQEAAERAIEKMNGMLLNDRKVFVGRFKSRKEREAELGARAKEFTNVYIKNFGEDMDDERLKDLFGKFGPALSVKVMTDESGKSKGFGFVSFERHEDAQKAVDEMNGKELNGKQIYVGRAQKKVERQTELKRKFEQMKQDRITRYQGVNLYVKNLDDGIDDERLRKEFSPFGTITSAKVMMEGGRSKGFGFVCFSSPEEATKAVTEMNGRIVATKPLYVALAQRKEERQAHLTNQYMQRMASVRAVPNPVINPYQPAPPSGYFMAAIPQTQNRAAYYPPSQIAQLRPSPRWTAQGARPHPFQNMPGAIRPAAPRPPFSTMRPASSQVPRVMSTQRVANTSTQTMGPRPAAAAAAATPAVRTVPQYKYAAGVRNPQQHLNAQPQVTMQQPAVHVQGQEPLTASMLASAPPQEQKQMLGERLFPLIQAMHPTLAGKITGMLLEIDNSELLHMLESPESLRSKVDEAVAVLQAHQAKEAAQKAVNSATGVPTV
ATP-dependent molecular chaperone HSP82, sequence (C4YTQ8 whole entry): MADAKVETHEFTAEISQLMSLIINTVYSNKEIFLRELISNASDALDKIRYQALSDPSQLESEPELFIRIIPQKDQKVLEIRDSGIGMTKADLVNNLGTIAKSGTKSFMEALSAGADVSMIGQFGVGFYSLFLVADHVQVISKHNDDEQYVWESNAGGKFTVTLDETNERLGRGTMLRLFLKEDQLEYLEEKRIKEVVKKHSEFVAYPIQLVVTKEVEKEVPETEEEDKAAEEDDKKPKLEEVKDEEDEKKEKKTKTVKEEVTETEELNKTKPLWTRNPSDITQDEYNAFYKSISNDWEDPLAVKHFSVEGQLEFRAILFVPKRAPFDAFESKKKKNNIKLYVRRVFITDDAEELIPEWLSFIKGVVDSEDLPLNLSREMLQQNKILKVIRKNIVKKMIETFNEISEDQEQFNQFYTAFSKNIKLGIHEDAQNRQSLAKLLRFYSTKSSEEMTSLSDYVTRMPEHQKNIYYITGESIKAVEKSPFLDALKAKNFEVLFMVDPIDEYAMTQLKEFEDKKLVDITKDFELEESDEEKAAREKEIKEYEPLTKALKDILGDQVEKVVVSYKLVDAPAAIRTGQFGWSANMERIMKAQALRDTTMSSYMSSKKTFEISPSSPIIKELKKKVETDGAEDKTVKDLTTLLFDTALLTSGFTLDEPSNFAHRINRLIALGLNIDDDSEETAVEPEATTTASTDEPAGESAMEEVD
Protein Wnt-3a, sequence (P27467 whole entry): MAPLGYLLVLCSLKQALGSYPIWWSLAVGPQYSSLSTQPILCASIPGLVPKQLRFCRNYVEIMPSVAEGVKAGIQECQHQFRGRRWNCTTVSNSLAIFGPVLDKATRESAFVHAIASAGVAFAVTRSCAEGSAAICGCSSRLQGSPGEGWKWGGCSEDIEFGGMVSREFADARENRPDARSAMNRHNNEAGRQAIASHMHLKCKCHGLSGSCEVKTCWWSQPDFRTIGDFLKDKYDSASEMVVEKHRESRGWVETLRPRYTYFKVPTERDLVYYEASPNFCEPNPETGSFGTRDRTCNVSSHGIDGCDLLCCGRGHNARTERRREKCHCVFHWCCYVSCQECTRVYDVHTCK

Compound: COC/C=C/C1=CC2=CC(=O)C(C)(OC(=O)c3cnc4ccccc4n3)C(=O)C2=CN1Cc1ccc(OC)cc1 (configuration not stated)
- CC50 (Vero): 39.2 µM (active)

Compound: CCc1ccccc1N=C(S)N=Nc1c(O)n(C)c2ccc(S(=O)(=O)N3CCOCC3)cc12
- IC50 (Protein Wnt-3a): 13.3 µM (active)
- EC50 [3]: > 150 µM (inconclusive)
- EC50 [4]: > 180 µM (inactive)
- EC50 [5]: 40.9 µM (active)
- EC50 [6]: > 38 µM (not active)

Compound: Nc1cc2c([N+](=O)[O-])cccc2o1
- AC50 [7]: 16.6 µM (active)
- IC50 [8]: 128 µM (active)

Compound: O=S(=O)(c1ccc(Cl)cc1)N1CCN(Cc2ccc(O)c3ncccc23)CC1
- AC50 [9]: 43.9 µM (active)
- AC50 [10]: 5.13 µM (active)
- AC50 [11]: 16.4 µM (active)
- AC50 (INS1): 2.42 µM (active)
- EC50 [12]: 1.37 µM (active)
- AC50 [13]: 4.37 µM (active)
- EC50 [3]: 16.6 µM (active)
- EC50 [14]: > 30 µM (not active)
- AC50 (A-375): 40.6 µM (active)
- AC50 [15]: 3.01 µM (active)
- EC50 [6]: 2.53 µM (active)

Compound: O=C(O)/C=C/c1ccc(O)cc1 [COUMARIC ACID]
- IC50 (Large T antigen): 18.9 µM (active)
- AC50 [7]: 10.9 µM (active)

The next lines start with the values.

- IC50 [1]: > 66 µM (inactive)
- IC50 [2]: > 66 µM (inactive)
Compound: O=C(Nc1cccs1)Nc1c(F)c(F)c(F)c(F)c1F

- IC50 (Hexokinase HKDC1): > 80 µM (inactive)
- IC50 (Hexokinase-1): > 80 µM (inactive)
Compound: O=C(Nc1cccc(C(=O)Nc2cccc(C(F)(F)F)c2)c1)c1ccncc1

- IC50 (Hexokinase HKDC1): > 80 µM (inactive)
- IC50 (Hexokinase-1): > 80 µM (inactive)
Compound: COc1ccccc1/C=C/c1nc2ccccc2c(=O)n1Cc1ccccc1

- IC50 (Hexokinase HKDC1): > 80 µM (inactive)
- IC50 (Hexokinase-1): > 80 µM (inactive)
Compound: O=C(Nc1nnc(SCc2ccc(Cl)cc2)s1)c1ccc2ncsc2c1

- IC50 [1]: > 66 µM (inactive)
- IC50 [2]: > 66 µM (inactive)
Compound: Cc1ccc(NC(=O)CSC(N)=O)cc1Cl

- AC50 [7]: 12.7 µM (active)
Compound: O=c1cc(-c2ccc(O)c(O)c2)oc2cc(O[C@@H]3O[C@H](CO)[C@@H](O)[C@H](O)[C@H]3O)cc(O)c12 [GALUTEOLIN]
